In paper PMC5951806, “Rapid labelling and covalent inhibition of intracellular native proteins using ligand-directed N-acyl-N-alkyl sulfonamide” (Nature Communications, 2018):
“And” between values parts separate entries of the source, which are not always exact repeats. Equal values may be shown once.

Assays:
Hsp90α = tested on: Hsp90α; set-up: method as in Supplementary References 1 and 2; conditions: reported for Hsp90α; ref Supplementary References 1 and 2; cited from earlier work
endogenous Hsp90 = test: Hsp90 labelling with 11 in live HeLa cells in the presence of competitive Hsp90 inhibitors; conditions: 11 0.5 µM, 10 µM competitive inhibitor
FKBP12 [1] = biological target: T1, FKBP12 (Homo sapiens, UniProt P62942); test: FKBP12 labelling in vitro (MALDI-TOF MS); assay type: biochemical; conditions: for FKBP12 labelling yield: 5 µM FKBP12, 10 µM reagent, pH 7.2, 37 °C
T1 construct: GST (factor Xa site) (N, cleaved yes); made in house; host or cells: E. coli BL21 Star (DE3)
T1 sequence (P62942 whole entry): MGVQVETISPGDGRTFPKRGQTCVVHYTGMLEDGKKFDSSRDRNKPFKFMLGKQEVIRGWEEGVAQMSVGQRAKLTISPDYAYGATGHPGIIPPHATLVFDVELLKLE
Text: Recombinant human FKBP12 was obtained as described in Supplementary Methods.

endogenous FKBP12 = biological target: T2, endogenous FKBP12 (Mus musculus, UniProt P26883); test: Chemical labelling of endogenous FKBP12 in C2C12 cells; assay type: cell-based; conditions: live C2C12 cells, 1 µM
T2 construct: endogenous FKBP12 inside live cells was specifically modified with biotin; endogenous in cells; host or cells: C2C12 mouse myoblast cells (ATCC)
T2 sequence (P26883 whole entry): as the sequence (P62942 whole entry) above, with M50T, T76I, P79S counted along it
Method: We then conducted intracellular endogenous FKBP12 labelling. Mouse myoblast C2C12 cells were incubated in culture medium containing 1 for 10–120 min at 37 °C. The cells were lysed and analysed by western blotting. […] Although the reaction rate was slightly slower than that of the in vitro experiments, probably because of the low membrane-permeability of 1, it should be noted that the labelled band was detectable after just 10 min incubation with 1, highlighting the rapid kinetics of LDNASA chemistry.
Mouse myoblast C2C12 cells (ATCC) (2.0 × 10^5 cells) were cultured in Dulbecco’s modified Eagle’s medium (DMEM) supplemented with 10% foetal bovine serum (FBS, Gibco), penicillin (100 units/ml), streptomycin ([…]), and amphotericin B (250 ng/ml), and incubated in a 5% CO2 humidified chamber at 37 °C. The cells were then incubated in FBS-free DMEM containing reagent (1 μM) at 37 °C for 120 min. As control experiments, the labelling was conducted in the presence of Rapamycin (10 μM). For western blot analysis, after washing twice with PBS, the cells were lysed with RIPA buffer (pH 7.4, 25 mM Tris–HCl, 150 mM NaCl, 0.1% SDS, 1% Nonidet P-40, 0.25% deoxycholic acid) containing 1% protease inhibitor cocktail set III (Calbiochem). […] The samples were subjected to SDS-PAGE and electro-transferred onto an Immun-Blot PVDF membrane (Bio-Rad). The labelled FKBP12 was detected by chemiluminescence analysis using Streptavidin-HRP conjugate, rabbit anti-FKBP12 antibody (Abcam, ab2918, 1:1000) and anti-rabbit IgG-HRP conjugate (CST, #7074 S, 1:5000).
Supplementary Figure 11 Quantification of labelling yields of endogenous FKBP12 in C2C12 cells. After C2C12 cells were incubated with LDNAS A 1 (1 µM) for 1 h, the cells were washed twi ce with PBS and l ys ed with R IPA buffer (pH 7.4, 25 mM Tris–HCl, 150 mM NaCl, 0.1% SDS, 1% Nonidet P-40, 0.25% deoxycholic acid) containing 1% protease inhibitor cocktail and rapamycin (10 µM) , which were aliquoted as input samples. All biotinylated proteins in the lysate were captured with Streptavidin agarose beads ( S Av -agarose, Thermo ). The flow through and elution fraction, as well as i nput samples, wer e subjected to Western blotting analysis using SAv- HRP and anti-FKBP12 antibody. Th e labelling yields were calculated by the following equation( Supplementar y Equation1) :
LLLLLLLLLLLLLLLLLL yy LLLLLLyy ( %) = IILLII LLLLII LLIIyyFFFFFFFF12 ,IIIIIIIIII – IILLII LLLLII LLIIyyFFFFFFFF12,FFFFFFFF IIhrrFFIIrr h × 100 ( 1) IILLII LLLLII LLIIyyFFFFFFFF12 ,IIIIIIIIII
Experiments were performed in triplicates (Ex.1–Ex.3), and the labelling yields of endogenous FKBP12 in C2C12 cells at 1 h with 1 were estimated to be 78 ± 2 % (mean ± standard deviation). Control, a sample without labelling; *, Nonspecific band derived from […]

[2] = Evaluation of stabilities of LDNASA reagents (hydrolysis in aqueous buffer, HPLC); conditions: for fraction hydrolysed: after incubation for 48 h at 37 °C, 50 mM HEPES pH 7.2
Method: FKBP12 labelling was conducted in test tubes by incubating each NASA reagent (1–3) (10 µM) with purified recombinant (wild-type) FKBP12[13] (5 µM, Mw: 11 914 Da) at 37 °C in a buffer solution (pH 7.2). The labelling reactions were monitored by matrix-assisted desorption/ionisation time-of-flight mass spectrometry (MALDI-TOF MS). […] The intrinsic reactivity of the reagents was evaluated by the hydrolysis rate in aqueous buffer.
LDNASA 1–3 (10 μM) and internal standard (Trimethoprim, 10 μM) were incubated in HEPES buffer (50 mM, pH 7.2) at 37 °C. Samples at different time points were taken and analysed by RP-HPLC.

FKBP12 [3] = biological target: T1, FKBP12; test: FKBP12 labelling in HeLa cell lysate (western blotting); assay type: biochemical; conditions: 37 °C
FKBP12 [4] = biological target: T1, FKBP12; test: Kinetic analysis of FKBP12 labelling; assay type: biochemical; conditions: for kL, labelling rate constant: FKBP12 100 nM, HEPES pH 7.2, 37 °C, mean of triplicate ± s.d.; for Kd: from curve fitting of kapp vs reagent concentration, FKBP12, pH 7.2, 37 °C; for kinact/KI: pH 7.2, read-out: kL/Kd, second-order rate constant
Text: With the optimal NASA reactive group in hand, we next investigated the reaction kinetics of LD chemistry in in vitro protein labelling. The labelling reaction of LD chemistry follows Eq. (1):1 P+R⇆KdPR→kLP^* where P is a native (non-labelled) protein, R is the reagent, PR is the native protein–reagent complex, P* is the labelled-protein, Kd is the dissociation constant and kL is the rate constant for the labelling process. When [R] > [P], the pseudo-first-order reaction rate (kapp) is given as follows (see Supplementary Methods)[35]:2 P+PR/P0= exp-kappt 3 kapp=kL/1+Kd∕R […]
The reaction time courses of FKBP12 labelling with various concentrations of 1 (200–2000 nM) were monitored by MALDI-TOF MS (Fig. 3b) and plotted to determine kapp using Eq. (2) (Fig. 3c). The values of kapp obtained in this manner were then plotted against the concentration of 1, which were well fitted by Eq. (3) (Fig. 3d). The labelling rate constant kL and the dissociation constant Kd of 1 were determined from curve fitting analysis to be (6.1 ± 0.6) × 10^−3 s^−1 and (2.1 ± 0.2) × 10^−7 M, respectively (the mean of triplicate ± standard deviation (s.d)) (Table 1).
The residual ratio of nonlabelled protein ([P] + [PR]/[P]0) were determined by MALDI-TOF MS (matrix: CHCA). The pseudo-first order reaction rates (kapp) were obtained by fitting the data to Eq. (2). Kinetic parameters were obtained by fitting the data to Eq. (3).
Kinetics of labelling reaction of LD chemistri es
The labelling reaction of LD chemistr y follows as Supplementary Equation (2) 3: where P is a native (non- labelled) protein, R is a reagent, PR is a native protein- reagent complex, P* is a labelled-protein, Kd is a dissociation constant, and k L is a rate constant for labelling process. Hyd r o l ys i s (deactivation) of LD reagents during the labelling process is negligible owing to these stabilities in buffer s olution (Supplementary Figure 3, also see
Supplementary R eferences 4–6) . The equations to be solved for the rate of labelling reaction […]
The solution of the equat ions is
According to the Supplementar y Equation (4), the k L and Kd values were obtained from the […]
Preparation of purif ied FKB P12

eDHFR = biological target: T3, eDHFR (Escherichia coli, UniProt P0ABQ4); test: Kinetic analysis of eDHFR labelling; assay type: biochemical; conditions: for kL, labelling rate constant: eDHFR 300 nM, HEPES 1 mM pH 7.2, 37 °C, mean of triplicate ± s.d.; for kinact/KI / Kd: eDHFR, pH 7.2, 37 °C; for kinact/KI: read-out: kL/Kd, second-order rate constant; for Kd: from curve fitting of kapp vs reagent concentration
T3 construct: thioredoxin (N, cleaved yes); made in house; host or cells: E. coli Top10
T3 sequence (P0ABQ4 whole entry): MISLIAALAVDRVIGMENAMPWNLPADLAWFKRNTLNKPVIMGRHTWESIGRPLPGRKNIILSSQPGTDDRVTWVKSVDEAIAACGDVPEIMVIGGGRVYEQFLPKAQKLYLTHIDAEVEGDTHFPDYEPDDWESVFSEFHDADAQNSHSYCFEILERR

SKBR3 cells = test: Cell viability assay (WST-8); conditions: SKBR3, 3 h treatment, washing, further 69 h
Method: The cell viability was assessed using Cell Counting Kit-8 (Dojin).

[5] = tested on: Hsp90-client proteins HER2, cRaf, Akt and pAkt; test: Western blotting of Hsp90 client proteins; conditions: SKBR3, 3 h treatment, washing, further 21 h
Method: We also examined the expression levels of client proteins of Hsp90 (Fig. 6e, f).
The cells were washed with PBS, and lysed with RIPA buffer containing 1% protease inhibitor cocktail. The lysed samples were centrifuged (15 200 × g, 10 min at 4 °C). The protein concentrations of supernatant were analysed by BCA assay, and the normalised lysates were mixed with 1/4 volume of 5 × sample buffer containing 250 mM DTT and vortexed for 1 h at room temperature.

[6] = biological target: N-terminal domain of Hsp90α (Homo sapiens, UniProt P07900); test: In vitro labelling of N-terminal domain of Hsp90α (MALDI-TOF MS); conditions: 6.4 µM protein, 10 µM 12, 37 °C; at Lys 58
Method: Aliquots at different time points were taken and then desalted using a Ziptip-C4. The modification yields were determined by MALDI-TOF MS (matrix: sinapic acid)
Reaction conditions: 6.4 µ M

[7] = biological target: N-terminal ATP binding domain of Hsp90α (Homo sapiens, UniProt P07900)
Text: courses of the depletion of native (non- labelled ) N-terminal ATP binding domain of Hsp90α
Purified N -terminal ATP binding domain of
The pseudo- first order reaction rates (k app) were obtained by fitting the dat a to Supplementary
Equation (3). (b) The dependence of kapp upon the concentration of reagent 12. Kinetic
parameters for covalent inhibition (ki nact and Ki) were obtained by fitting the data to
Supplementary Equation (4).

intracellular Hsp90 = conditions: SKBR3 cells, pre-treated 1–10 µM for 3 h, washed, then 11 0.5 µM
Text: The cells were washed, lysed and analysed by in-gel fluorescence imaging. […] Error bars represent s.d., n = 3

FR = biological target: FR; set-up: method as in PMID 2552922; conditions: cited from earlier work

## CC(C)NCCCn1c(Sc2cc(Cl)cc(Cl)c2)nc2c(N)ncnc21 [PU-WS13]
Hsp90α
  IC50: 27000 nM
Endogenous Hsp90
  inhibition of Hsp90 labelling by 11: less potent inhibition

## CCC(C)(C)C(=O)C(=O)N1CCCC[C@H]1C(=O)O[C@H](CCc1ccc(OC)c(OC)c1)c1cccc(OCC(=O)NCCCCCNC(=O)c2ccc(S(=O)(=O)N(CC#N)C(=O)CCCC[C@@H]3SCC4NC(=O)NC43)cc2)c1 (some centres unmarked) [compound 1]
FKBP12 [1]; within 15 min
  FKBP12 labelling yield: 98%
FKBP12 [1]; FKBP12 labelling, 1 versus 2
  initial rate, fold faster than 2: 49 fold
FKBP12 [1]; FKBP12 labelling, 1 versus 3
  initial rate, fold faster than 3: 105 fold
FKBP12 [1]; in vitro, with rapamycin
  FKBP12 labelling in the presence of rapamycin (competitive ligand): completely abolished
Endogenous FKBP12
  incubation time after which the labelled band was detectable: 10 min
Endogenous FKBP12; 60 min, 37 °C
  labelling yield of endogenous FKBP12: 78 ± 2% and 78%
Endogenous FKBP12; 120 min
  labelling yield of endogenous FKBP12: almost quantitative
[2]; HEPES buffer, pH 7.2
  half-life at 10 µM: 43 h
FKBP12 [3]; HeLa cell lysate with 1 µM FKBP12, reagent 1–20 µM, 1 h
  ratio of unspecific to specific labelling: less than 0.15
FKBP12 [4]
  kL, labelling rate constant: (6.1 ± 0.6) × 10^−3 s^−1
  Kd: 210 nM
  kinact/KI: 29000 M⁻¹ s⁻¹
FKBP12 [4]; FKBP12 labelling
  kL, fold higher than that of LDT 5: 635 fold

## CCC(C)(C)C(=O)C(=O)N1CCCC[C@H]1C(=O)O[C@H](CCc1ccc(OC)c(OC)c1)c1cccc(OCC(=O)NCCCCCNC(=O)c2ccc(S(=O)(=O)N(Cc3ccc([N+](=O)[O-])cc3)C(=O)CCCC[C@@H]3SCC4NC(=O)NC43)cc2)c1 (some centres unmarked) [compound 2]
FKBP12 [1]; after a 2-h incubation
  FKBP12 labelling yield: 22%
[2]
  fraction hydrolysed: 5%

## CCC(C)(C)C(=O)C(=O)N1CCCC[C@H]1C(=O)O[C@H](CCc1ccc(OC)c(OC)c1)c1cccc(OCC(=O)NCCCCCNC(=O)c2ccc(S(=O)(=O)N(Cc3ccc([N+](=O)[O-])cc3[N+](=O)[O-])C(=O)CCCC[C@@H]3SCC4NC(=O)NC43)cc2)c1 (some centres unmarked) [compound 3]
FKBP12 [1]; after a 2-h incubation
  FKBP12 labelling yield: 17%
[2]
  fraction hydrolysed: 5%

## CCC(C)(C)C(=O)C(=O)N1CCCCC1C(=O)OC(CCc1ccc(OC)c(OC)c1)c1cccc(OCC(=O)N2CCN(C(=O)c3cccc(S(=O)(=O)OCCOCCOCCNC(=O)CCCCC4SCC5NC(=O)NC54)c3)CC2)c1 (centres unmarked) [compound 5, reference compound]
Endogenous FKBP12; <120 min
  endogenous FKBP12 labelling: failed to label FKBP12
FKBP12 [4]
  kL, labelling rate constant: (9.6 ± 0.2) × 10^−6 s^−1
  Kd: 210 nM
  kinact/KI: 45 ± 6 M⁻¹ s⁻¹

## CCN(CC)c1ccc2cc(C(=O)NCCOCCOC(=O)n3cnc(CC(=O)NCCCCCNC(=O)CCCCOc4c(OC)cc(Cc5cnc(N)nc5N)cc4OC)c3)c(=O)oc2c1 [compound 6]
eDHFR
  kL, labelling rate constant: (5.8 ± 0.1) × 10^−6 s^−1
  kinact/KI: 11 ± 1 M⁻¹ s⁻¹
  Kd: 550 nM

## CCN(CC)c1ccc2cc(C(=O)Oc3c(Br)cc(C(=O)NCCCCCNC(=O)CCCCOc4c(OC)cc(Cc5cnc(N)nc5N)cc4OC)cc3Br)c(=O)oc2c1 [compound 7]
eDHFR
  kL, labelling rate constant: (3.4 ± 0.3) × 10^−4 s^−1
  kinact/KI: 590 M⁻¹ s⁻¹
  Kd: 580 nM

## COc1cc(C(=O)C(=O)N2CCCCC2C(=O)NCCOCCOCC(=O)NCCCCCNC(=O)c2ccc(S(=O)(=O)N(CC#N)C(=O)CCCCC3SCC4NC(=O)NC43)cc2)cc(OC)c1OC (centres unmarked) [compound 8]
FKBP12 [3]; HeLa cell lysate with 1 µM FKBP12, 1 h, 1 at 1 µM
  concentration required to obtain the same signal intensity as biotinylated FKBP12 labelled by 1: 20 µM
FKBP12 [4]
  kL, labelling rate constant: (7.6 ± 1.7) × 10^−3 s^−1
  Kd: 100000 nM
  kinact/KI: 74 ± 19 M⁻¹ s⁻¹
FKBP12 [4]; FKBP12 labelling
  kL/Kd, fold less than 1: 392 fold

## N#CCN(C(=O)CCCC(=O)NCCCn1c(Sc2cc3c(cc2I)OCO3)nc2c(N)ncnc21)S(=O)(=O)c1ccccc1 [compound 12]
SKBR3 cells
  cytotoxicity / growth inhibitory effect after washout: clearly showed a growth inhibitory effect
[5]
  Hsp90-client protein levels after washout: decrease in Hsp90-client proteins was also observed
[6]
  covalent attachment of the PU-H71 ligand to Hsp90 N-terminal domain: quantitative and single covalent attachment
[7]
  Ki: 62 nM
[7]; pH 7.2, read-out: second-order rate constant of the covalent inhibition
  kinact/KI: 29000 M⁻¹ s⁻¹
Intracellular Hsp90
  blocking of fluorescent labelling of Hsp90 by 11 after washout: strongly inhibited the fluorescent labelling

## CN(Cc1cnc2nc(N)nc(N)c2n1)c1ccc(C(=O)N[C@@H](CCC(=O)O)C(=O)O)cc1 [methotrexate]
FR
  Kd: ~200 nM
